System: DPH-labelled synthetic vesicles
Test: Synthetic vesicle membrane fluidity assay (DPH fluorescence polarisation)
Conditions: increasing SSA concentration; polar phospholipid membranes, excluding PC only; 298 K
Experimental: To further explore the effects of SSAs on physical phospholipid membrane characteristics, membrane fluidity experiments were performed. Here a dye (1,6-diphenyl-1,3,5-hexatriene – DPH) was inserted into the synthetic vesicle membrane to enable the study of increased/decreased membrane fluidity through competitive fluorescence polarisation (FP) measurements. In these studies, FP values are found to decrease with increasing membrane fluidity and vice versa. However, these studies could only be performed with SSAs 1–4 and 7 due to overlapping SSA/DHP fluorescence emission.
Section 2: General Methods […]
All solvents and starting materials were purchased from known chemical suppliers or available stores and used without any further purification unless specifically stipulated. […] Fluorescence and fluorescence polarisation measurements were conducted using a Clariostar plate reader and analysed using MARS data analysis […]
Preparation of calcein loaded vesicles: Lipid films were resuspended in buffer A (70 mM calcein, 10 mM TRIS pH 8.5, 0.5 mM EDTA, 110 mM NaCl, pH adjusted to 6-7) and subjected to 9 freeze-thaw cycles in liquid nitrogen and extruded 20 times through a 200 nm polycarbonate membrane. […] The hydrodynamic dimeter of the lipids was monitored using an Anton Paar LitesizerTM 500 to ensure the separation of free and entrapped calcein. […]

With `O=C(O)CNC(=O)Nc1ccc(C(F)(F)F)cc1` [SSA 4] the “overall change in FP (membrane fluidity)” value was over 10%.

From PMC9400670, “Establishing the selective phospholipid membrane coordination, permeation and lysis properties for a series of ‘druggable’ supramolecular self-associating antimicrobial amphiphiles” (Chemical Science, 2022)
